Data on 24 compounds can be found in PubChem BioAssay AID256 (DTP/NCI, 2004).

Each structure is given as a SMILES string. “And” between values parts separate entries of the source, which are not always exact repeats. Equal entries are not always repeated. Toxic doses and inconclusive results are not listed.

In this experiment the test system is CD2F1 mice, L1210 leukemia ip, survival T/C. The experiment can be described thus: NCI In Vivo Anticancer Drug Screen. Data for tumor model L1210 Leukemia (intraperitoneal) in CD2F1 (CDF1) mice. The conditions noted are these: endpoint: mean survival time, higher = longer survival. An outline of the steps: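 Vehicle-treated tumor-bearing mice served as controls (C) for compound-treated mice (T). Reported figure is T divided by C.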

[1] abbreviates: dose: 100.0 mg/kg/injection, schedule: Q01DX009 (ip), vehicle: saline with Tween-80.
Where [2] appears, read: dose: 200.0 mg/kg/injection, schedule: Q01DX009 (ip), vehicle: saline with Tween-80.
Setting [3] is: dose: 400.0 mg/kg/injection, schedule: Q01DX009 (ip), vehicle: saline with Tween-80.
[4] abbreviates: dose: 12.5 mg/kg/injection, schedule: Q01DX009 (ip), vehicle: saline with Tween-80.
The mark [5] stands for this setting: dose: 25.0 mg/kg/injection, schedule: Q01DX009 (ip), vehicle: saline with Tween-80.
Where [6] appears, read: dose: 50.0 mg/kg/injection, schedule: Q01DX009 (ip), vehicle: saline with Tween-80.
Where [7] appears, read: dose: 100.0 mg/kg/injection, schedule: Q04DX003 (ip), vehicle: saline with Tween-80.
[8] abbreviates: dose: 200.0 mg/kg/injection, schedule: Q04DX003 (ip), vehicle: saline with Tween-80.
Where [9] appears, read: dose: 400.0 mg/kg/injection, schedule: Q04DX003 (ip), vehicle: saline with Tween-80.
Setting [10] is: dose: 100.0 mg/kg/injection, schedule: Q01DX001 (ip), vehicle: saline with Tween-80.
The mark [11] stands for this setting: dose: 200.0 mg/kg/injection, schedule: Q01DX001 (ip), vehicle: saline with Tween-80.
[12] abbreviates: dose: 400.0 mg/kg/injection, schedule: Q01DX001 (ip), vehicle: saline with Tween-80.

As for `CC1C2CCC(C2)C1C(=O)O` (stereo not given), the T/C under setting [1] was 98 % of control; the T/C (dose: 100.0 mg/kg/injection, schedule: Q04DX003 (ip), vehicle: other) was 94 % of control; the T/C under setting [2] is 94 % of control; the T/C (dose: 200.0 mg/kg/injection, schedule: Q04DX003 (ip), vehicle: other) was 87 % of control; the T/C under setting [3] is 86 % of control; the T/C (dose: 400.0 mg/kg/injection, schedule: Q04DX003 (ip), vehicle: other) was 90 % of control.
In the case of `CN=C(N)/N=C(\N)C(Cl)(Cl)Cl`, the T/C was 111 % of control (dose: 100.0 mg/kg/injection, schedule: Q01DX001 (ip), vehicle: saline); 86 % of control (dose: 200.0 mg/kg/injection, schedule: Q01DX001 (ip), vehicle: saline); 90 % of control (dose: 400.0 mg/kg/injection, schedule: Q01DX001 (ip), vehicle: saline).
On to `COc1cc([NH-])c([NH-])cc1OC.[Cl][Pt+2][Cl]`, for which the T/C reads like this: (dose: 1.25 mg/kg/injection, schedule: Q01DX009 (ip), vehicle: saline with Tween-80) 103 % of control; (dose: 2.5 mg/kg/injection, schedule: Q01DX009 (ip), vehicle: saline with Tween-80) 107 % of control; (dose: 5.0 mg/kg/injection, schedule: Q01DX009 (ip), vehicle: saline with Tween-80) 105 % of control; (dose: 10.0 mg/kg/injection, schedule: Q01DX009 (ip), vehicle: saline with Tween-80) 106 % of control; (dose: 20.0 mg/kg/injection, schedule: Q01DX009 (ip), vehicle: saline with Tween-80) 104 % of control and 111 % of control; (dose: 40.0 mg/kg/injection, schedule: Q01DX009 (ip), vehicle: saline with Tween-80) 107 % of control. The T/C runs as follows: (dose: 80.0 mg/kg/injection, schedule: Q01DX009 (ip), vehicle: saline with Tween-80) 107 % of control; (dose: 160.0 mg/kg/injection, schedule: Q01DX009 (ip), vehicle: saline with Tween-80) 92 % of control.
In the case of `CCCCC(=O)NN`, the T/C under setting [4] was 90 % of control, the T/C under setting [5] is 104 % of control and the T/C under setting [6] is 118 % of control.
Consider `COc1ccc(OC)c(NC(=O)Oc2ccc(-c3ccccc3)cc2Cl)c1`, for which the T/C under setting [1] was 105 % of control, the T/C under setting [2] was 102 % of control and the T/C under setting [3] was 106 % of control.
Take `Cc1ccc(S(=O)(=O)NCC(Br)CBr)cc1` (stereo not given): the T/C is 93 % of control under setting [1]; 100 % of control under setting [7]; 93 % of control under setting [2]; 98 % of control under setting [8]; 96 % of control under setting [3]; 100 % of control under setting [9].
As to `NC1=NC(c2ccccc2)N(c2ccc(Cl)cc2)C(N)=N1` (stereo not given), the T/C is 93 % of control under setting [10] and 95 % of control under setting [11].
With `OC(C/C(=N\Nc1ccccc1)c1ccc(Br)cc1)(C(F)(F)F)C(F)(F)F`, the T/C by setting is: under setting [10], 96 % of control; under setting [11], 95 % of control; under setting [12], 97 % of control.
As for `COc1cc(OC)c(NC(=O)OCCOc2cc(C)c(Cl)c(C)c2)cc1Cl`, the T/C was 95 % of control under setting [4], 95 % of control under setting [5], 98 % of control under setting [6] and 88 % of control under setting [1].
On to `On1ccc(=S)c2ccccc21`, for which the T/C under setting [7] is 102 % of control, the T/C under setting [8] was 96 % of control and the T/C under setting [9] is 102 % of control.
Take `NC1CCCCC1CC1CCCCC1` (stereo not given): the T/C under setting [5] is 106 % of control; the T/C (dose: 25.0 mg/kg/injection, schedule: Q04DX003 (ip), vehicle: saline with Tween-80) is 97 % of control; the T/C under setting [6] was 103 % of control; the T/C (dose: 50.0 mg/kg/injection, schedule: Q04DX003 (ip), vehicle: saline with Tween-80) was 97 % of control; the T/C under setting [1] was 95 % of control; the T/C under setting [7] is 98 % of control.
`CCCCCCCCCCCC(=O)[O][Pb]([CH2]C)([CH2]C)[CH2]C`: the T/C was 87 % of control (dose: 3.13 mg/kg/injection, schedule: Q01DX009 (ip), vehicle: saline with Tween-80) and 104 % of control (dose: 6.25 mg/kg/injection, schedule: Q01DX009 (ip), vehicle: saline with Tween-80).
For `Cc1nc2c(O)cccn2c(=O)c1Cl`, the T/C under setting [7] was 102 % of control.
Take `CN(C)C(=Nc1ccccc1)N(C)N`: the T/C reads like this: (dose: 75.0 mg/kg/injection, schedule: Q01DX001 (ip), vehicle: saline) 97 % of control; (dose: 150.0 mg/kg/injection, schedule: Q01DX001 (ip), vehicle: saline) 100 % of control.
For `C=CC1(O)CC2CCC1C2` (stereo not given), the T/C is 106 % of control under setting [7], 93 % of control under setting [8] and 101 % of control under setting [9].
As to `O=C(Cc1ccccc1)c1ccc(Cl)cc1`, the T/C was 101 % of control under setting [10], 88 % of control under setting [11] and 93 % of control under setting [12].
Turning to `O=c1[nH]cc(F)c(=O)n1C1OC(CO)C(O)C1O` (stereo not given), the T/C (dose: 1.0 mg/kg/injection, schedule: Q01DX009 (ip), vehicle: saline) is 169 % of control; the T/C (dose: 2.0 mg/kg/injection, schedule: Q01DX005 (ip), vehicle: saline) is 160 % of control; the T/C (dose: 2.0 mg/kg/injection, schedule: Q01DX009 (ip), vehicle: saline) was 160 % of control; the T/C (dose: 4.0 mg/kg/injection, schedule: Q01DX005 (ip), vehicle: saline) is 207 % of control; the T/C (dose: 4.0 mg/kg/injection, schedule: Q01DX009 (ip), vehicle: saline) is 124 % of control; the T/C (dose: 5.0 mg/kg/injection, schedule: Q03HX024 (ip), vehicle: saline) was 155 % of control. Moreover, the T/C (dose: 5.0 mg/kg/injection, schedule: Q04DX003 (ip), vehicle: saline) is 163 % of control; the T/C (dose: 10.0 mg/kg/injection, schedule: Q03HX024 (ip), vehicle: saline) is 231 % of control; the T/C (dose: 10.0 mg/kg/injection, schedule: Q04DX003 (ip), vehicle: saline) is 189 % of control; the T/C (dose: 20.0 mg/kg/injection, schedule: Q01DX001 (ip), vehicle: saline) is 151 % of control; the T/C (dose: 20.0 mg/kg/injection, schedule: Q03HX024 (ip), vehicle: saline) is 151 % of control; the T/C (dose: 20.0 mg/kg/injection, schedule: Q04DX003 (ip), vehicle: saline) was 184 % of control.
Consider `CC1=CC(=O)OC(C)(C)C1`, for which the T/C by setting is: (dose: 100.0 mg/kg/injection, schedule: Q01DX009 (ip), vehicle: saline) 97 % of control; (dose: 200.0 mg/kg/injection, schedule: Q01DX009 (ip), vehicle: saline) 96 % of control; (dose: 400.0 mg/kg/injection, schedule: Q01DX009 (ip), vehicle: saline) 114 % of control.
Consider `C#CC(C)(C)OC(O)C(Cl)(Cl)Cl` (stereo not given), for which the T/C (dose: 100.0 mg/kg/injection, schedule: Q04DX002 (ip), vehicle: saline with Tween-80) was 91 % of control; the T/C (dose: 200.0 mg/kg/injection, schedule: Q04DX002 (ip), vehicle: saline with Tween-80) was 91 % of control; the T/C (dose: 400.0 mg/kg/injection, schedule: Q04DX002 (ip), vehicle: saline with Tween-80) is 106 % of control.
Take `CCOCC(C(=O)OCC)C(=O)OCC`: the T/C by setting is: under setting [7], 104 % of control; under setting [8], 102 % of control; under setting [9], 104 % of control.
Consider `Cc1ccc(CC(F)(F)F)cc1`, for which the T/C was 100 % of control under setting [7], 100 % of control under setting [8] and 108 % of control under setting [9].
Consider `CC(=O)OCC1OC(OC(C)=O)C(NC(=O)C[NH-])C(OC(C)=O)C1OC(C)=O.CC(=O)OCC1OC(OC(C)=O)C(NC(=O)C[NH-])C(OC(C)=O)C1OC(C)=O.[Cl][Pt+2][Cl]` (stereo not given), for which the T/C by setting is: (dose: 12.5 mg/kg/injection, schedule: Q04DX003 (ip), vehicle: saline) 96 % of control; (dose: 25.0 mg/kg/injection, schedule: Q04DX003 (ip), vehicle: saline) 98 % of control; (dose: 50.0 mg/kg/injection, schedule: Q04DX003 (ip), vehicle: saline) 98 % of control; (dose: 100.0 mg/kg/injection, schedule: Q04DX003 (ip), vehicle: saline) 106 % of control; (dose: 200.0 mg/kg/injection, schedule: Q04DX003 (ip), vehicle: saline) 98 % of control.
With `COCC(=O)C(C(C)=O)C(c1ccc2c(c1)OCO2)C(C(C)=O)C(=O)COC` (stereo not given), the T/C is 96 % of control under setting [7], 101 % of control under setting [8] and 96 % of control under setting [9].
As for `COc1ccc(C[C@@H]2NC[C@@H](O)[C@@H]2OC(C)=O)cc1`, the T/C is 98 % of control under setting [1]; 105 % of control under setting [7]; 104 % of control under setting [2]; 103 % of control under setting [8]; 100 % of control under setting [9].
